Tests used:
recombinant human CK2 = target: T1, recombinant human CK2 (Homo sapiens, UniProt P68400); test: Cell-free CK2 assay; format: biochemical; conditions: for inhibition at 0.5 µM: read-out: CK2: % inh 500 nM
T1 construct: purchased Upstate
Description: Modulatory activity of compounds described herein is assessed in vitro in cell-free CK2 assays. These assays are described hereafter.
Test compounds in aqueous solution are added at a volume of 10 microliters, to a reaction mixture comprising 10 microliters Assay Dilution Buffer (ADB; 20mM MOPS, pH 7.2, 25 mM beta-glycerolphosphate, 5 mM EGTA, 1 mM sodium orthovanadate and 1 mM dithiothreitol), 10 microliters of substrate peptide (RRRDDDSDDD (SEQ ID NO:4), dissolved in ADB at a concentration of 1 mM), 10 microliters of recombinant human CK2 (25 ng dissolved in ADB; Upstate). Reactions are initiated by the addition of 10 microliters of ATP Solution (90% 75 mM MgC12, 75 micromolar ATP dissolved in ADB; 10% [γ-^33P]ATP (stock 1 mCi/100 μl; 3000 Ci/mmol (Perkin Elmer) and maintained for 10 minutes at 30 degrees C. The reactions are quenched with 100 microliters of 0.75% phosphoric acid, then transferred to and filtered through a phosphocellulose filter plate (Millipore). After washing each well 5 times with 0.75% phosphoric acid, the plate is dried under vacuum for 5 min and, following the addition of 15 ul of scintillation fluid to each well, the residual radioactivity is measured using a Wallac […].

[1] = test system: PC-3 human prostatic cancer cells; test: Cell proliferation assay (Alamar Blue), PC3; format: cell-based; conditions: PC3 cell line
Description: (§1) A representative cell-proliferation assay protocol using Alamar Blue dye (stored at 4° C., use 20 ul per well) is described hereafter.
(§2) 96-Well Plate Setup and Compound Treatment
(§3) • a. Split and trypsinize cells. • b. Count cells using hemocytometer. • c. Plate 4,000-5,000 cells per well in 100 μl of medium and seed into a 96-well plate according to the following plate layout. Add cell culture medium only to wells B10 to B12. Wells B1 to B9 have cells but no compound added.
(§4) • d. Add 100 μl of 2× drug dilution to each well in a concentration shown in the plate layout above. At the same time, add 100 μl of media into the control wells (wells B10 to B12). Total volume is 200 μl/well. • e. Incubate four (4) days at 37° C., 5% CO2 in a humidified incubator. • f. Add 20 μl Alamar Blue reagent to each well. • g. Incubate for four (4) hours at 37° C., 5% CO2 in a humidified incubator. • h. Record fluorescence at an excitation wavelength of 544 nm and emission wavelength of 590 nm using a microplate reader.
(§5) In the assays, cells are cultured with a test compound for approximately four days, the dye is then added to the cells and fluorescence of […] dye is detected after approximately four hours. Different types of cells can be utilized in the assays (e.g., HCT-116 human colorectal carcinoma cells, PC-3 human prostatic cancer cells and MiaPaca human pancreatic carcinoma cells).

[2] = test system: MiaPaca human pancreatic carcinoma cells; test: Cell proliferation assay (Alamar Blue), MiaPaCa; format: cell-based; conditions: MIA PaCa-2, MiaPaCa cell line
Description: as §1, §2, §3, §4, §5

[3] = test system: HCT-116 human colorectal carcinoma cells; test: Cell proliferation assay (Alamar Blue), HCT-116; format: cell-based; conditions: HCT-116 cell line
Description: as §1, §2, §3, §4, §5

MV-4-11 = test: Cell proliferation assay (Alamar Blue), MV-4-11; format: cell-based; conditions: Homo sapiens, MV4-11; MV-4-11 cell line
Description: as §1, §2, §3, §4, §5

K562 = test: Cell proliferation assay (Alamar Blue), K562; format: cell-based; conditions: Homo sapiens; K562 cell line
Description: as §1, §2, §3, §4, §5

MDA-MB231 = test: Cell proliferation assay (Alamar Blue), MDA-MB231; format: cell-based; conditions: Homo sapiens, MDA-MB-231; MDA-MB231 cell line
Description: as §1, §2, §3, §4, §5

BxPC3 = test: Cell proliferation assay (Alamar Blue), BxPC3; format: cell-based; conditions: Homo sapiens, BXPC-3; BxPC3 cell line; read-out: Bx-PC3
Description: as §1, §2, §3, §4, §5

PanC1 = test: Cell proliferation assay (Alamar Blue), PanC1; format: cell-based; conditions: Homo sapiens, PANC-1; PanC1 cell line
Description: as §1, §2, §3, §4, §5

Jurkat = test: Cell proliferation assay (Alamar Blue), Jurkat; format: cell-based; conditions: Homo sapiens; Jurkat cell line
Description: as §1, §2, §3, §4, §5

T1 sequence (P68400 whole entry): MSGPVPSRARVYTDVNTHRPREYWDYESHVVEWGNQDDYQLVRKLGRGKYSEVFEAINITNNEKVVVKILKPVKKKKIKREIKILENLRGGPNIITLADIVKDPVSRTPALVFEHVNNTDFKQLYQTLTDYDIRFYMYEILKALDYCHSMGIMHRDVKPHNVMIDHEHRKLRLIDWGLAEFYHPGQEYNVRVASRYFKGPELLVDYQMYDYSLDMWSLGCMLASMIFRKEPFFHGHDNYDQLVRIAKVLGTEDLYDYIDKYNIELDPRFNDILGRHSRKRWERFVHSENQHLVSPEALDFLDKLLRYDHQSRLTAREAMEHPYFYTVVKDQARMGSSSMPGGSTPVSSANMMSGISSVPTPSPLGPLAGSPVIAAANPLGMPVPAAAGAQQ
T1 sequence (P67870 whole entry partner): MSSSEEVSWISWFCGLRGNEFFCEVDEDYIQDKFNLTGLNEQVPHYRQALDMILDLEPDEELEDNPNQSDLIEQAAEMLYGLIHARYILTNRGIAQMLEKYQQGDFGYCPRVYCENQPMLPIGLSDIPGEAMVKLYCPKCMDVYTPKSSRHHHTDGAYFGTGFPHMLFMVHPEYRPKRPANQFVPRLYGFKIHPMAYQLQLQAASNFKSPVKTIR

Row | IC50 (recombinant human CK2) | inhibition at 0.5 µM (recombinant human CK2) | IC50 [1] | IC50 [2] | IC50 [3] | IC50 (MV-4-11) | IC50 (K562) | IC50 (MDA-MB231) | IC50 (BxPC3) | IC50 (PanC1) | IC50 (Jurkat) | Compound
1 | 0.029 µM | 98% | > 10 µM | > 10 µM | > 10 µM | 1.4 µM | > 10 µM | 0.2 µM |  |  |  | O=C(O)c1ccc2c(c1)nc(-c1cccc(F)c1)c1ccncc12
2 |  | 9% | > 10 µM | > 10 µM | > 10 µM | > 10 µM | > 10 µM |  |  |  |  | CN1CCCCC1CNC(=O)c1ccc2c(c1)nc(-c1cccc(N)c1)c1ccncc12 (stereo not drawn)
3 | 0.007 µM | 98% | > 10 µM | > 10 µM | > 10 µM | > 10 µM | > 10 µM | > 10 µM | > 10 µM |  |  | O=C(O)c1ccc2c(c1)nc(-c1ccc(Cl)cc1)c1ccncc12
4 |  | 68% |  | > 62.5 µM | > 10 µM |  |  | > 62.5 µM | > 62.5 µM | > 62.5 µM | 47.6 µM | COC(=O)c1ccc2c(c1)nc(-c1cnn(C)c1)c1nc(SC)ncc12 [Methyl 5-(1-methyl-1H-pyrazol-4-yl)-3-(methylthio)pyrimido[4,5-c]quinoline-8-carboxylate]
5 | 0.004 µM | 101% |  | 0.9 µM | > 10 µM | 0.6 µM | 0.6 µM | > 30 µM | 13.6 µM | > 30 µM | 3.6 µM | Cn1cc(-c2nc3cc(C(=O)O)ccc3c3cnc(NC4CC4)nc23)cn1
6 |  | 45% |  | 5.2 µM | 1.1 µM |  |  | 35.7 µM | 1.1 µM | 25.9 µM | 0.5 µM | NC(=O)c1ccc2c(c1)nc(-c1ccccc1)c1nc(NC3CC3)ncc12
7 |  | 0% |  | 2.8 µM | 4.3 µM |  |  | > 30 µM | 5.9 µM | > 30 µM | 1.6 µM | Cn1cc(-c2nc3cc(C(=O)NC4CC4)ccc3c3cnc(NC4CC4)nc23)cn1
8 | 0.03 µM | 95% | > 10 µM | > 10 µM | > 10 µM | > 10 µM | 0.9 µM | > 10 µM | > 10 µM |  |  | O=C(O)c1ccc2c(c1)nc(-c1cccc(Cl)c1)c1ccncc12
9 | 0.093 µM | 99% |  | 3.7 µM | 2.9 µM |  |  | 11.1 µM | 4.5 µM | 15.9 µM | 1.5 µM | O=C(O)c1ccc2c(c1)nc(-c1ccccc1)c1nc(NC3CC3)ncc12 [3-(cyclopropylamino)-5-phenylpyrimido[4,5-c]quinoline-8-carboxylic acid]
10 |  | 10% |  | 0.6 µM | > 10 µM |  |  | 17.2 µM | > 30 µM | 1.4 µM | > 30 µM | COC(=O)c1ccc2c(c1)nc(-c1cnn(C)c1)c1nc(NC3CC3)ncc12
11 |  | -4% |  | 58.4 µM | 0.8 µM |  |  | > 62.5 µM | 1.2 µM | 30.2 µM | 0.6 µM | O=C(NC1CC1)c1ccc2c(c1)nc(-c1ccccc1)c1nc(NC3CC3)ncc12 [N-cyclopropyl-3-(cyclopropylamino)-5-phenylpyrimido[4,5-c]quinoline-8-carboxamide]
12 | 0.004 µM | 98% | > 10 µM | > 10 µM | > 30 µM | 13.3 µM | 0.2 µM | > 10 µM | > 10 µM |  |  | O=C(O)c1ccc2c(c1)nc(-c1ccsc1)c1ccncc12
13 |  | -27% |  | 3.2 µM | 2.6 µM |  |  | 3.4 µM | 1.9 µM | 8.7 µM | 1.1 µM | COC(=O)c1ccc2c(c1)nc(-c1ccccc1)c1nc(NC3CC3)ncc12 [methyl 3-(cyclopropylamino)-5-phenylpyrimido[4,5-c]quinoline-8-carboxylate]
14 |  | -18% |  | 5.5 µM | 2.7 µM |  |  | 6.4 µM | 10.6 µM | 9.8 µM | 0.7 µM | COC(=O)c1ccc2c(c1)nc(-c1ccccc1)c1nc(S(C)(=O)=O)ncc12 [methyl 3-(methylsulfonyl)-5-phenylpyrimido[4,5-c]quinoline-8-carboxylate]
15 |  | 19% | > 10 µM | > 10 µM | > 10 µM | > 10 µM | > 10 µM |  |  |  |  | CN1CCN(C(=O)c2ccc3c(c2)nc(-c2cccc(N)c2)c2ccncc23)CC1

Source: patent US7910600B2, “Therapeutic kinase modulators” (Cylene Pharmaceuticals, Inc., priority 2007, dated 2011)
